According to article PMC10779255, “Novel Hydroxamic Acids Containing Aryl-Substituted 1,2,4- or 1,3,4-Oxadiazole Backbones and an Investigation of Their Antibiotic Potentiation Activity” (International Journal of Molecular Sciences, 2023):
Entries after “also recorded” stand apart in the source; their conditions may differ.

Legend:
E. coli LpxC = details: cited from earlier work
[1] = Cytotoxicity assay (Alamar Blue); type: cell-based; details: human, HEK293 cells, 72 h exposure, mean ± SD, at least 3 independent experiments
Procedure: (§1) The HEK293 cell line was obtained from the ECACC (European Collection of Authenticated Cell Cultures, cat. 85120602, Salisbury, UK). The cells were grown in monolayer culture in Dulbecco’s Modified Eagle Medium (DMEM) (PanEco, Moscow, Russia) supplemented with 2 mM of L-glutamine, 1% penicillin/streptomycin (Capricorn Scientific, Ebsdorfergrund, Germany), and 10% heat-inactivated fetal bovine serum (HyClone, Cytiva, Pasching, Austria) in a humidified atmosphere of 5% CO2 and at 37 °C (Binder, Tuttlingen, Germany). For analysis, the HEK293 cells were seeded into a 96-well plate (Corning Incorporated, Corning, NY, USA) in 100 μL of complete culture medium at a final concentration of 1 × 10^4 cells/well and cultured for 24 h for proper attachment. Subsequently, the medium was removed, and cells were exposed to the test inhibitor with different concentrations for 72 h in 100 μL of fresh complete culture medium. The sensitivity of the cells to test inhibitor molecules was detected using the vital dye Alamar Blue (Invitrogen, Carlsbad, CA, USA). The Alamar Blue assay was performed according to the procedure described by O’Brien et al.. After incubation with test inhibitor molecules, 10 μL of Alamar Blue reagent was added to each well, cell culture plates were returned to a humidified incubator, and the fluorescence was read after 3 h. The plates were exposed to an excitation wavelength of 545 nm, and the emission at 600 nm was measured with the CLARIOstar Plus (BMG Labtech, Ortenberg, Germany, Software Version 5.70 R2). To determine corresponding 50% cellular cytotoxicity (CC50) values, a four-parameter sigmoidal fit curve model (GraphPad Prism 8 software) was used to measure the data.

HEK293 cell line = assay: Cytotoxicity assay (Alamar Blue); type: cell-based; details: HEK293 cells, 72 h exposure, mean ± SD, at least 3 independent experiments
Procedure: as §1

E. coli MG1655 = assay: Growth curves of E. coli MG1655 with antibiotics, with or without LpxC inhibitors (antibiotic potentiation); type: cell-based, Escherichia coli; details: for Activity: combined action together with the antibiotic, marking used for QSAR; for potentiation of kanamycin (sensitivity of cells): kanamycin 0.62 μM; for potentiation of kanamycin (sensitivity of cells) / potentiation of rifampicin (sensitivity of cells): inhibitor 50 or 100 µM; for potentiation of kanamycin (sensitivity of cells) / potentiating activity with nalidixic acid (growth inhibition) / potentiation of rifampicin (sensitivity of cells): OD600 growth curves; for potentiating activity with nalidixic acid (growth inhibition): nalidixic acid 17.22 μM, inhibitor 50–100 µM; for potentiation of rifampicin (sensitivity of cells): rifampicin 6.08 μM; as to Activity: key: active (1); inactive (0)
Procedure: (§2) Escherichia coli strain MG1655 and Pseudomonas aeruginosa strain ATCC 27853 were obtained from the American Type Culture Collection (ATCC; Rockville, MD, USA). Subculturing and inoculum preparation were prepared according to the Clinical and Laboratory Standards Institute (CLSI) recommended method, M7-A9 [42], using MHA and MHB.
Growth curves were obtained with a Bioscreen C automated growth analysis system. Cultures of E. coli MG1655 were grown overnight at 37 °C, diluted 1:100 in fresh medium, inoculated into honeycomb wells in triplicate, and grown at 37 °C with maximum shaking using the platform of the Bioscreen C instrument. […] OD600 values were recorded automatically at specified times, and the means of the triplicate cultures were plotted.

P. aeruginosa ATCC 27853 = assay: MIC (broth microdilution) and growth curves of antibiotics in combination with 9c or 9d; type: cell-based, Pseudomonas aeruginosa
Procedure: as §2
Minimum inhibitory concentrations (MICs) for rifampicin and nalidixic acid were determined via the modified broth microdilution method in triplicate according to CLSI guidelines M7-A9 and M100-A30 [43]. The antibiotics were serially diluted twofold in 100 μL of MHB. The bacteria inoculum was 100 μL of a 1.0 × 10^6 CFU/mL dilution in MHB. MICs for antibiotics in the presence of 9c or 9d were determined with the same method.
MIC endpoints were read after 24 h of incubation with an iMark microplate absorbance reader (Bio-Rad, Hercules, CA, USA). Growth curves of P. aeruginosa ATCC 27853 in the presence of rifampicin/nalidixic acid and 9c/9d were obtained using a multifunction microplate reader, SuperMax 3100 (ShanghaiFlash, Shanghai, China). Cells were grown in triplicate at 37 °C with aeration.

melting point	decrease of MIC of rifampicin (P. aeruginosa ATCC 27853; 25 μM of compound)	reduction of MIC of nalidixic acid (P. aeruginosa ATCC 27853; 25 μM of compound)	MIC of rifampicin in the presence of compound (P. aeruginosa ATCC 27853; 50 μM of compound) [µM]	reduction of MIC of nalidixic acid (P. aeruginosa ATCC 27853; 50 μM of compound)	reduction of MIC of rifampicin (P. aeruginosa ATCC 27853; 50 μM of compound) [times]	MIC of rifampicin in the presence of compound (P. aeruginosa ATCC 27853; 100 μM of compound) [µM]	decrease of MIC of nalidixic acid (P. aeruginosa ATCC 27853; 100 μM of compound)	reduction of MIC of rifampicin (P. aeruginosa ATCC 27853; 100 μM of compound) [times]	MIC (P. aeruginosa ATCC 27853; Pseudomonas aeruginosa, ATCC27853, 100 μM of compound, read-out: MIC of nalidixic acid in the presence of compound) [µM]	Compound	inhibition of E. coli LpxC (E. coli LpxC)	CC50 at 72 h [1] [µM]	CC50 (HEK293) (HEK293 cell line)	Activity (E. coli MG1655)	potentiation of kanamycin (sensitivity of cells) (E. coli MG1655)	potentiating activity with nalidixic acid (growth inhibition) (E. coli MG1655)	potentiation of rifampicin (sensitivity of cells) (E. coli MG1655)	bacteriostatic effect in the first 10 h of incubation (E. coli MG1655; with antibiotic, resumption of culture growth observed subsequently)	time of growth inhibition in combination with nalidixic acid (P. aeruginosa ATCC 27853; 50 μM of compound + 2.15 μM nalidixic acid, growth curves) [h]	P. aeruginosa ATCC 27853 growth in combination with antibiotics (P. aeruginosa ATCC 27853; with nalidixic acid or rifampicin)
–	–	–	–	–	–	–	–	–	–	CCCc1cc(C2=N[C@@H](C(=O)NO)CO2)cc(OC)c1OC [L-161,240]	potent inhibitors	–	–	–	–	–	–	–	–	–
198 °C (dec.)	–	–	–	–	–	–	–	–	–	Cn1c(-c2nnc(C(=O)NO)o2)cc2ccccc21 [Compound 36]	–	132 ± 23.7	increased toxicity	1	completely ineffective	inhibited bacterial growth less effectively; also recorded: weak potentiating activity	completely ineffective	–	–	–
159.2 °C (dec.)	twofold	two times	0.08	four times	64	0.08	approximately eight-fold	64	2.15	O=C(Cc1nc(-c2cc(F)c(F)c(F)c2)no1)NO [Compound 9c]	–	189 ± 29.5	–	1	greatest effectiveness; also recorded: greatest potentiating activity	greatest potentiating activity	greatest effectiveness; also recorded: greatest potentiating activity	powerful bacteriostatic effect	≤ 14	significantly reduced; also recorded: best results
